One block for each molecule: values may come before it.
Columns and labels:
A549 = assay: Anticancer activity against human A549 cells assessed as cell growth inhibition measured after 48 hrs by MTT assay; format: functional, cell-based; details: A549, 48 h
MCF7 [1] = assay: Anticancer activity against human MCF7 cells assessed as cell growth inhibition measured after 48 hrs by MTT assay; format: functional, cell-based; details: MCF7, 48 h
K562 = assay: Anticancer activity against human K562 cells assessed as cell growth inhibition measured after 48 hrs by MTT assay; format: functional, cell-based; details: K562, 48 h
HT-29 [2] = assay: Anticancer activity against human HT-29 cells assessed as cell growth inhibition measured after 48 hrs by MTT assay; format: functional, cell-based; details: HT-29, 48 h
FaDu = assay: Anticancer activity against human FaDu cells assessed as cell growth inhibition measured after 48 hrs; format: functional, cell-based; details: Homo sapiens, FaDu, 48 h
PC-3 [3] = assay: Anticancer activity against human PC-3 cells assessed as cell death at 50 uM measured after 72 hrs by MTT assay relative to control; format: functional
MDA-MB-435 = assay: Anticancer activity against human MDA-MB-435 cells assessed as cell growth inhibition by SRB assay; format: functional, cell-based
MCF7 [4] = assay: Anticancer activity against human MCF7 cells assessed as cell growth inhibition by SRB assay; format: functional, cell-based
HT-29 [5] = assay: Anticancer activity against human HT-29 cells assessed as cell growth inhibition measured after 24 hrs by MTT assay; format: functional, cell-based; details: HT-29, 24 h
MCF7 [6] = assay: Anticancer activity against human MCF7 cells assessed as cell growth inhibition measured after 24 hrs by MTT assay; format: functional, cell-based; details: MCF7, 24 h
COS-7 = assay: Anticancer activity against COS-7 cells assessed as cell growth inhibition at 50 uM measured after 48 hrs by MTT assay relative to control; format: functional; details: Chlorocebus aethiops
HCT-116 = assay: Anticancer activity against human HCT-116 cells assessed as cell growth inhibition measured after 24 hrs by SRB assay; format: functional, cell-based; details: HCT-116, 24 h
MCF7 [7] = assay: Anticancer activity against human MCF7 cells assessed as cell growth inhibition measured after 24 hrs by SRB assay; format: functional, cell-based; details: MCF7, 24 h
Mahlavu = assay: Anticancer activity against human Mahlavu cells assessed as cell growth inhibition measured after 24 hrs by SRB assay; format: functional, cell-based
Huh-7 = assay: Anticancer activity against human Huh-7 cells assessed as cell growth inhibition measured after 24 hrs by SRB assay; format: functional, cell-based; details: Huh-7, 24 h
MCF7 [8] = assay: Growth inhibition of human MCF7 cells assessed as cell growth inhibition by SRB assay; format: functional
HepG2 = assay: Anticancer activity against human HepG2 cell assessed as cell growth inhibition; format: functional, cell-based
PC-3 [9] = assay: Potency index, ratio of cisplatin IC50 to test compound IC50 for anticancer activity against human PC-3 cells; format: functional

IC50 (A549): 4.38 µM
IC50 (MCF7 [1]): 4.8 µM
SMILES: Cc1cc(=O)oc2cc(NC(=O)CN3CCCC3)ccc12

IC50 (K562): 0.39 µM
IC50 (HT-29 [2]): 0.39 µM
IC50 (MCF7 [1]): 0.39 µM
SMILES: O=C1CCC(=O)N1CC(=O)N1N=C(c2ccccc2)CC1c1ccccc1 (stereo unspecified)

IC50 (A549): 4.37 µM
IC50 (MCF7 [1]): 4.37 µM
SMILES: N#C[C@H]1CCCN1CC(=O)Nc1cc2ccccc2oc1=O

SMILES: O=C1Nc2ccccc2C12N[C@H](Cc1ccccc1)[C@@H](c1cccc([N+](=O)[O-])c1)[C@@]21CN(/C=C/c2ccccc2)C/C(=C\c2cccc([N+](=O)[O-])c2)C1=O (stereo partly specified)
IC50 (FaDu): ≥ 19 µM

SMILES: COC(=O)[C@H]1C[C@@H](C(=O)OC)C(c2ccccc2)(c2ccccc2)N1C(=O)Cn1cc(C2CC2)nn1
Activity (PC-3 [3]): 25%

SMILES: O=C1Nc2ccccc2C12N[C@H](Cc1ccccc1)[C@@H](c1ccccc1)[C@@]21CN(/C=C/c2ccccc2)C/C(=C\c2ccccc2)C1=O (stereo partly specified)
IC50 (FaDu): 19 µM

IC50 (A549): 3.09 µM
IC50 (MCF7 [1]): 9.27 µM
SMILES: CCOC(=O)[C@H]1CCCN1CC(=O)Nc1cc2ccccc2oc1=O

IC50 (MDA-MB-435): ≥ 3.6 µM
IC50 (MCF7 [4]): ≥ 53 µM
SMILES: N#CC1=C(N)OC2=C(c3ccccc3C2=O)C12C(=O)Nc1ccccc12 (stereo unspecified)

IC50 (A549): 1.8 µM
IC50 (MCF7 [1]): 4.8 µM
SMILES: O=C(CN1CCCC1)Nc1cc2ccccc2oc1=O

IC50 (HT-29 [5]): 644 µM
IC50 (MCF7 [6]): 293 µM
SMILES: O=C1c2ccccc2C(=O)N1/N=C/c1ccccc1

IC50 (A549): 5 µM
SMILES: O=C(N[C@H]1C[C@@H](C(=O)NO)N(S(=O)(=O)c2ccc(Oc3ccccc3)cc2)C1)c1cccnc1

SMILES: O=C1Nc2ccccc2C12CCNC2c1cccc(F)c1 (stereo unspecified)
inhibition at 50 µM (COS-7): 0.51%

IC50 (HCT-116): 10.5 µM
IC50 (MCF7 [7]): 11.2 µM
IC50 (Huh-7): 36.6 µM
SMILES: CC(C)C[C@@H]1N2[C@H](c3ccccc3)[C@H](c3ccccc3)OC(=O)[C@H]2[C@H](c2ccccc2Cl)[C@@]12C(=O)Nc1ccccc12
IC50 (Mahlavu): 26.3 µM

IC50 (A549): 0.024 µM
IC50 (MCF7 [1]): 0.355 µM
SMILES: NC(=O)[C@H]1CCCN1CC(=O)Nc1cc2ccccc2oc1=O

IC50 (A549): 27.3 µM
IC50 (MCF7 [1]): 7.05 µM
SMILES: Cc1cc(=O)oc2cc(NC(=O)[C@@H]3CCCN3S(=O)(=O)c3ccc(Cl)cc3)ccc12

IC50 (A549): 0.024 µM
IC50 (MCF7 [1]): 0.355 µM
SMILES: Cc1cc(=O)oc2cc(NC(=O)CN3CCC[C@@H]3C(N)=O)ccc12

IC50 (HCT-116): 3.9 µM
IC50 (MCF7 [7]): 4.8 µM
IC50 (Huh-7): 77.8 µM
SMILES: CC(C)C[C@@H]1N2[C@H](c3ccccc3)[C@H](c3ccccc3)OC(=O)[C@H]2[C@H](c2ccc([N+](=O)[O-])cc2)[C@@]12C(=O)Nc1ccccc12
IC50 (Mahlavu): 14.9 µM

SMILES: O=C1Nc2ccccc2C12CCNC2c1cc(C(F)(F)F)ccc1C(F)(F)F (stereo unspecified)
inhibition at 50 µM (COS-7): 0.51%

IC50 (A549): 4.02 µM
IC50 (MCF7 [1]): 4.43 µM
SMILES: Cc1cc(=O)oc2cc(NC(=O)CN3CCC[C@@H]3C#N)ccc12

SMILES: COC(=O)[C@H]1C[C@@H](C(=O)OC)C(c2ccccc2)(c2ccccc2)N1C(=O)Cn1cc(C2CCCC2)nn1
Activity (PC-3 [3]): 30%

SMILES: CCCC(C)c1cn(CC(=O)N2[C@@H](C(=O)OC)C[C@@H](C(=O)OC)C2(c2ccccc2)c2ccccc2)nn1 (stereo partly specified)
Activity (PC-3 [3]): 25%

SMILES: COc1cccc2c1C(=O)c1c(O)c3c(c(O)c1C2=O)C[C@@](O)(C(=O)CO)C[C@@H]3O[C@H]1C[C@H](N)[C@H](O)[C@H](C)O1.Cl [DOXORUBICIN HYDROCHLORIDE]
GI50 (MCF7 [8]): < 10 µg/mL

IC50 (A549): 0.024 µM
IC50 (MCF7 [1]): 0.355 µM
SMILES: CCOC(=O)[C@H]1CCCN1CC(=O)Nc1ccc2c(C)cc(=O)oc2c1

SMILES: O=C1Nc2ccccc2C12N[C@H](Cc1ccccc1)[C@@H](c1ccc(Cl)cc1)[C@@]21CN(/C=C/c2ccccc2)C/C(=C\c2ccc(Cl)cc2)C1=O (stereo partly specified)
IC50 (FaDu): ≥ 19 µM

SMILES: COC(=O)[C@H]1C[C@@H](C(=O)OC)C(c2ccccc2)(c2ccccc2)N1C(=O)Cn1cc(-c2ccccc2)nn1
Activity (PC-3 [3]): 30%

IC50 (HepG2): 5.5 µM
SMILES: O=C(c1c[nH]c2ccccc12)[C@@H]1[C@@H](c2ccc(Cl)cc2Cl)[C@@H]2CSCN2[C@@]12C(=O)Nc1ccccc12
Ratio IC50 (PC-3 [9]): >4.3

— ChEMBL document CHEMBL5360530, “Structure activity relationship (SAR) and anticancer activity of pyrrolidine derivatives: Recent developments and future prospects (A review)” (Eur J Med Chem, 2023)
